# Source: patent US20220155322A1, “USE OF NATRIURETIC PEPTIDES TO ASSESS AND TREAT ACUTE KIDNEY INJURY” (Mayo Foundation for Medical Education and Research, priority 2019, published 2022)
# Positions of bridges follow the written chain, without caps; N, C: chain ends. Residues, ends and D or L forms follow the SMILES beside them.
# Experiments:
# [1] = tested on: ischemic AKI model in normal mongrel canines; experiment: Ischemic AKI in canines: hormonal and renal function; assay type: in vivo, canine
# [2] = tested on: ischemic AKI model in normal mongrel canines; assay type: in vivo, canine; settings: after ischemia, 16.3 pmol/kg/min
# Method: Ischemic Acute Kidney Injury in Canines: An ischemic AKI model in normal mongrel canines (male, 25-30 kg, n=5 per group) was created with high dose intravenous indomethacin infusion (10 mg/kg with NaHCO3[5 mg/kg] dissolved in 50 ml distilled water) followed by suprarenal ACC (Sandok et al., J Am Soc Nephrol, 196-202, 1992). Briefly, canines were anesthetized with intravenous pentobarbital (15-30 mg/kg) and fentanyl (4-12 μg/kg), intubated, and mechanically ventilated on air with supplemental oxygen, 3 L/minute, 12 cycles/minute (Harvard Apparatus; […], Mass.). The femoral and carotid arteries were accessed for mean arterial pressure (MAP) monitoring and blood sampling. The femoral vein was cannulated for continuous inulin infusion and saline/indomethacin/drug infusions. The left renal artery was attached with a probe for renal blood flow (RBF) measurement and a catheter was placed in the left ureter for passive urine collection. A flow-directed balloon-tipped thermodilution catheter was advanced to the pulmonary artery through the external jugular vein for measurement of cardiac filling pressures and cardiac output (CO). After a 60 minute equilibration, baseline (BL) characteristics were established. […] GFR values were calculated based on inulin clearance. Urinary sodium was measured with pHOx Ultra (Nova Biomedical; Waltham, Mass.).
# [3] = tested on: AKI canine kidneys (renal cortex); experiment: Renal injury ex vivo analysis (H&E histology and TUNEL); assay type: in vivo; settings: AKI canine kidney cortex, compared to vehicle
# Method: Histology and TUNEL Analysis: Fixed renal tissues were embedded in paraffin. For histology analysis, paraffin-embedded slides in vehicle (n=5) and CRRL269 (n=5) were stained with hematoxylin and eosin (H&E). A renal pathologist who was blinded to the study examined the H&E stained slides. Renal morphologic injuries such as tubular dilation and vacuolization were evaluated. Renal cortical apoptosis in vehicle (n=5) and CRRL269 (n=5) treated dogs were assessed using a TUNEL assay (Promega; Madison, Wis.) followed the protocol provided by the manufacturer. […] DAPI (Vectashield, Vector Laboratories; Burlingame, Calif.) was used to label the nucleus. TUNEL results were analyzed by confocal fluorescence microscopy (Nikon A50R; Melville, N.Y.).
# [4] = tested on: apoptosis pathway genes in HRPTC; experiment: Apoptosis pathway PCR array in H/R HRPTC; assay type: cell-based, human
# Method: Apoptosis Pathway PCR Array and Caspase7 Real Time PCR: Two groups of HRPTC (vehicle and 10^−6 M CRRL269) that underwent oil induced H/R, and a negative control (Neg Ctrl) group with no H/R stress, were cultured in 6-well plates as described above, and total RNA was collected using the Trizol method (Thermo Fisher Scientific; Waltham, Mass.). RNA was reverse transcribed for cDNA for PCR RT2 array experiments. Apoptosis pathway PCR array (Qiagen; Germantown, Md.) was conducted using the SYBR green (Bio-Rad Laboratories; Hercules, Calif.) method in a Lightcycler 480 (Roche Diagonostics; Indianapolis, Ind.). Raw data were analyzed with the online Qiagen RT2 PCR analysis program. […] A Caspase7 RT-PCR primer (PPH00110C-200, Qiagen) was obtained, and RT-PCR reactions were performed using the SYBR green method in a Lightcycler 480. The B2M gene (primer PPH01094E, Qiagen) was used for normalization.
# [5] = 16.3 pmol/kg/min infusion for 2 hours after ACC, vs vehicle
# [6] = 16.3 pmol/kg/min, compared to vehicle
# [7] = postischemia phases, 16.3 pmol/kg/min, vs vehicle
compound,measurement,setting,value
CC[C@H](C)[C@@H]1NC(=O)[C@H](CCCNC(=N)N)NC(=O)[C@H](CC(=O)O)NC(=O)[C@H](CCSC)NC(=O)[C@H](CCCCN)NC(=O)[C@H](CCCNC(=N)N)NC(=O)CNC(=O)[C@H](Cc2ccccc2)NC(=O)[C@@H](NC(=O)[C@H](CO)NC(=O)[C@H](CO)NC(=O)[C@H](CCCNC(=N)N)NC(=O)[C@H](CCCNC(=N)N)NC(=O)[C@H](CC(C)C)NC(=O)[C@H](CO)NC(=O)[C@H](CCCNC(=N)N)NC(=O)[C@@H]2CCCN2C(=O)[C@H](C)NC(=O)[C@@H](N)[C@@H](C)O)CSSC[C@@H](C(=O)N[C@@H](CC(N)=O)C(=O)N[C@@H](CO)C(=O)N[C@@H](Cc2ccccc2)C(=O)N[C@@H](CCCNC(=N)N)C(=O)N[C@@H](Cc2ccc(O)cc2)C(=O)O)NC(=O)CNC(=O)[C@H](CC(C)C)NC(=O)CNC(=O)[C@H](CO)NC(=O)[C@H](CO)NC(=O)[C@H](CO)NC(=O)[C@H](CO)NC1=O [CRRL269] (H-TAPRSLRRSSCFGRKMDRISSSSGLGCNSFRY-OH; disulfide 11-27),plasma cGMP levels,[1]; [5],increased
same,urinary cGMP levels,[1]; [5],increased
same,renal parenchyma cGMP levels,"[1]; 16.3 pmol/kg/min infusion for 2 hours, ex vivo cortex and medulla",increased
same,"urinary sodium excretion (UNaV), natriuresis",[1]; [6],significantly induced
same,"urine output (UV), diuresis",[1]; [6],significantly induced
same,plasma (circulating) ANGII levels,"[1]; post-ischemia CL1 to CL4, 16.3 pmol/kg/min, vs vehicle",significantly reduced
same,glomerular filtration rate (GFR),[1]; [7],maintained
same,renal blood flow (RBF),[1]; [7],maintained
same,pulmonary capillary wedge pressure (PCWP),[2],reduced
same,right atrial pressure (RAP),[2],reduced
same,renal cortex vacuolization (H&E staining),[3],less vacuolization compared to vehicle
same,renal cortical apoptosis (TUNEL assay),[3],reduced apoptosis
same,Caspase7 gene down-regulation in PCR array,[4]; 10^−6 M CRRL269,at least two-fold
same,number of apoptosis pathway genes down-regulated at least 2 fold,"[4]; 10^−6 M CRRL269, 84-gene array",8 out of 84
